According to patent US6653504B1, “Non-hygroscopic salts of active ingredients having therapeutical and/or nutritional activities and orally administrable compositions containing same” (Sigma-Tau Industrie Farmaceutiche Riunite S.p.A., priority 1999, dated 2003):
Structures can show the parent of a compound that is named as a salt.

Assay: Hygroscopicity: increase in weight and appearance after exposure to humidity
Assay type: physicochemical
Conditions: exposure to 70±5% relative humidity, at 25° C. for 24 hours

Molecule	Appearance	Increase in weight (%)
CC(=O)O[C@H](CC(=O)O)C[N+](C)(C)C.[Cl-] [Acetyl-L-carnitine chloride]	clumped mass	8
CC(=O)O[C@H](CC(=O)[O-])C[N+](C)(C)C [Acetyl-L-carnitine inner salt]	deliquescent	19
C[N+](C)(C)C[C@H](O)CC(=O)[O-] [L-carnitine inner salt]	deliquescent	23

Assay: not given
Conditions: background statement, no conditions given; cited from earlier work

Molecule	Hygroscopicity of known salts
C[N+](C)(C)C[C@H](O)CC(=O)O.C[N+](C)(C)C[C@H](O)CC(=O)O.O=C([O-])C(O)C(O)C(=O)[O-] [L(−)-carnitine tartrate]	non-hygroscopic
CC(=O)O[C@H](CC(=O)O)C[N+](C)(C)C.O=C([O-])/C=C/C(=O)O [acetyl L(−)-carnitine acid fumarate]	strongly hygroscopic
L(−)-carnitine acid fumarate	non-hygroscopic
